Laboratory results as given in patent publication US20200253926A1, “THERAPEUTIC COMBINATIONS” (SUPERSALUS, INC., priority 2019, published 2020).
Counter-ions that a name gives are not always drawn.

Key:
[1] = physchem; format: physicochemical; conditions: for solubility: thermodynamic from solid
Description: The hygroscopicity of zofenopril sodium material A was tested using DVS.

[2] = Hygroscopicity by dynamic vapor sorption (DVS); format: physicochemical
Description: Zofenopril calcium was slurried in ACN. Two molar equivalents of HCl were added. The materials were allowed to slurry overnight. […] On DSC this material has an onset at 162° C. This is in contrast to DSC results for zofenopril calcium which has an onset of 250.3° C. […] On the sorption step up to 65% RH, the material gained 1.2% weight. Above this RH, the material gained an additional 36.9% weight. […] Most of the weight was lost on desorption with significant hysteresis.
Nicorandil free base was dissolved in acetone resulting in a clear solution. A molar equivalent of HCl was added stepwise following which there nucleation with rosettes of aciculars and blades that were birefringent. The resulting material was recovered and shown to be nicorandil HCl form A. The XRPD pattern for this sample is shown in FIG. 16. Based on the single crystal structure, nicorandil hydrochloride form A is anhydrous and contains one nicorandil cation and one chloride anion in the asymmetric unit. On the sorption step up to 75% RH, the material gained 0.5% weight. Above that it gained an additional 52% weight. Most of the weight was lost on desoption with significant hysteresis. The material recovered from DVS was shown by XRPD to be form A (FIG. 18). Solubility of nicorandil HCl form A was tested and shown to be >48 mg/mL which was the limit of the test.

[3] = system: portal vein rings; experiment: In-vitro rat portal vein ring relaxation (isometric method); format: cell-based, Wistar rats; set-up: Emax: dose or concentration left out as unconfirmed
Description: The portal vein was recovered from Wistar rats weighing approximately 450 gm, and divided into vein segments. Segments were placed in a bath containing approximately 10 mL of Krebs buffer at pH˜7.4. The vehicle used for treatment was 0.2% DMSO. Portal vein rings were pre-contracted and incubated for 60 min at 32° C. Ring relaxation was measured after 10 minutes of exposure to the test compound(s). Chromakalim served as the positive control for the experiment. Ring relaxation was measured by the isometric method as gram changes. Relaxation of the vein rings in this assay are a function of both KATP channel agonization and NO response. In prior published work, about half of the relaxation response could be attributable to KATP channel agonization and half to a NO-mediated response. Each assay was run in duplicate.
Eight combinations of concentration of zofenopril and nicorandil were tested in the assay. These were 80 and 40 μM nicorandil, 100 and 50 μM zofenopril, 12.5 μM zofenopril+10 μM nicorandil, 12.5 μM zofenopril+20 μM nicorandil, 12.5 μM zofenopril+40 μM nicorandil, and 25 μM zofenopril+40 μM nicorandil.

[4] = system: human umbilical artery segments; conditions: cited from earlier work
[5] = following a 5 mg dose; expected value; cited from earlier work
[6] = system: arterial rings; conditions: 100 μM zofenopril; cited from earlier work
[7] = system: aortic rings; conditions: cited from earlier work
[8] = system: isolated rat hearts; conditions: cited from earlier work
[9] = system: H2S levels; conditions: compared to vehicle treated animals; cited from earlier work
[10] = system: NO2 levels; conditions: compared with vehicle treated animals; cited from earlier work

C[C@H](CSC(=O)c1ccccc1)C(=O)N1C[C@@H](Sc2ccccc2)C[C@H]1C(=O)O [zofenopril sodium material A, zofenopril sodium]
pH of the solution at the end of the solubility ([1]; pH 10): 10 | solubility ([1]; pH 10, water): > 48 mg/mL

O=C(NCCO[N+](=O)[O-])c1cccnc1 [nicorandil HCl form A, nicorandil hydrochloride]
solubility [1]: > 48 mg/mL | DVS additional weight gain above 75% RH ([2]; above 75% RH): 52 % weight | DVS weight gain on the sorption step up to 75% RH ([2]; up to 75% RH): 0.5 % weight

O=C(NCCO[N+](=O)[O-])c1cccnc1 [nicorandil]
relaxation response ([3]; 40 μM nicorandil): maximal relaxation response | relaxation, % of maximum ([4]; 30 μM nicorandil): about 60% | relaxation ([4]; 100 μM nicorandil): maximal relaxation | Cmax [5]: 15 to 16 µM

C[C@H](CSC(=O)c1ccccc1)C(=O)N1C[C@@H](Sc2ccccc2)C[C@H]1C(=O)O [zofenopril]
relaxation, % of the positive control ([3]; 50 μM zofenopril): 60% | relaxation, % of the positive control ([3]; 100 μM zofenopril, positive control chromakalim, 10 min exposure): about 85% | Emax ([3]; Rattus norvegicus, read-out: relaxation, % of the maximum response for zofenopril): ~70% | relaxation response [6]: maximal relaxation response | maximal response, relaxation of aortic rings [7]: 89% | pre-ischemic coronary flow or contractile function [8]: little effect | reperfusion end diastolic pressure (EDP) and lactate dehydrogenase (LDH) release ([8]; reversed by glyburide and 5-HD): significantly reduced | reperfusion function ([8]; reversed by glyburide and 5-HD): significantly improved | plasma and myocardial tissue H2S levels [9]: directly elevating plasma and myocardial tissue H2S levels | plasma and myocardial tissue NO2 levels [10]: significantly increased

CC1(C)Oc2ccc(C#N)cc2C(N2CCCC2=O)C1O (stereo not drawn) [Chromakalim, chromakalim]
relaxation of aortic rings [7]: near maximal relaxation

zofenopril calcium chloride [Zofenopril calcium chloride form A]
DVS additional weight gain above 65% RH ([2]; above 65% RH, equilibration timed out at all steps): 36.9 % weight | DVS weight gain on the sorption step up to 65% RH ([2]; up to 65% RH): 1.2 % weight

CCOC(=O)[C@H](CCc1ccccc1)N[C@@H](C)C(=O)N1[C@H](C(=O)O)C[C@@H]2CCC[C@@H]21 [Ramipril, ramipril]
plasma and myocardial tissue H2S levels [9]: did not elevate | plasma and myocardial tissue NO2 levels [10]: virtually no effect
